Data on two compounds can be found in article PMC4890114, “Intracellular quantitative detection of human thymidylate synthase engagement with an unconventional inhibitor using tetracysteine-diarsenical-probe technology” (Scientific Reports, 2016).

Test [1] deals with TC-hTS in HEK293T cell lysates. The test can be described thus: FlAsH emission in cell lysates. The test is classed as binding, human. As to conditions: excitation 480 nm. As to the method: HEK293T cells (10 × 10^6) were plated into 150-mm dishes (6 dishes were used for each condition) and transfected the following day with 25 μg of pcDNA-TS or pcDNA-TS-TC using Lipofectamine™ LTX Transfection Reagent; cells were collected 48 h post-transfection in 15-ml tubes and washed twice with 4 °C cold PBS for spectrofluorometric analysis. […]
UV-visible absorption measurements were performed with a Cary 100 Varian spectrophotometer. Fluorescence measurements were carried out with a Horiba Fluoromax-3 spectrofluorometer. […] The fluorescein, hTS dimer and LR-h concentrations were determined spectrophotometrically using the following extinction coefficients: εmax (fluorescein) = 79000 M^−1 cm^−1, ε280 (hTS) = 89000 M^−1 cm^−1, ε280 (fluorescein) = 30000 M^−1 cm^−1,[28] and ε404 (LR-h) = 35000 M^−1 cm^−1, determined ad hoc for this work. The h (420 nm) and F (522 nm) emissions were measured by excitation at 370 or 380 nm. The F emission values were analysed according to the Scatchard method as functions of the LR-h concentration. The amount measured before LR-h addition and due to the direct excitation of F at 370 nm was subtracted from the intensity measured at 522 nm. […] Similar experiments were performed in 800 μl of the lysate of 60 × 10^6 HEK cells to which hTS-F was added to a concentration of 2.5 μM (determined spectrophotometrically). […]

In test [2] the test system is TC-hTS-transfected HEK293T cells. The test can be described thus: FlAsH-EDT2 staining and confocal imaging of transfected HEK293T cells. As to conditions: HEK293T transfected with empty vector, hTS or TC-hTS; 0.5 μM FlAsH, 30 min; confocal microscopy. The test is classed as cell-based, human. As to the method:
HEK293T cells (3 × 10^4) were plated into 6-well microslides pre-coated with 0.01% (w/v) poly-L lysine and transfected the following day with 2.5 μg of DNA using Lipofectamine™ LTX Transfection Reagent. After 24 h, cells were labelled for 30 min with 12.5 μM 1,2-ethanedithiol (EDT) and 0.5 μM FlAsH (Life Technologies) in HBSS and then washed twice for 15 min in 150 μM 2,3-dimercaptopropanol (BAL) in HBSS. Cells were fixed with 4% (w/v) paraformaldehyde for 15 min at RT and then imaged using an inverted Leica TCS SP2 confocal microscope interfaced with an Ar Laser (488 nm/20 mW), equipped with AOBS and operated at a magnification of 63x (HCX PL APO 63x/1.40 - oil - Lambda blue correction). Images were processed using LCS Lite (Leica Microsystems, Heidelberg).

For test [3] the following is noted: complexes of FlAsH with some dodecapeptides including CCPGCC; 'as low as'; read-out: apparent dissociation constant; cited from earlier work. An excerpt: According to a strategy devised by Tsien and co-workers, some fluorogenic biarsenicals can covalently bind proteins that contain a tetracysteine motif, CCXXCC, thereby strongly enhancing their emission quantum yield and making such tetracysteine-containing proteins observable within cells. The CCPGCC sequence features a hairpin conformation that optimizes the covalent binding of each As atom of the probe to the S atoms of two cysteine units. Apparent dissociation constants as low as 4 pM have been measured for complexes formed between the fluorescein diarsenical probe FlAsH and some do ...

In test [4] the target is T1, human thymidylate synthase (hTS) (Homo sapiens, UniProt P04818).
T1 construct: inferred from the nickel-resin purification and the pQE80L vector; made in house; host or cells: E. coli DH5α
Nature of the test: Kinetic characterization of the hTS enzyme. The test is classed as biochemical. As to conditions: mTHF 3.50-69.20 μM; enzyme 0.30 μM, dUMP 120 μM; 340 nm; triplicate.
Protocol: The enzyme reaction was started when dUMP was added to the reaction mixture. […] For each single determination assay, the experimental data were analysed in triplicate with a p-value < 0.005 representing statistical significance.

In the case of `O=C(O)c1ccccc1-c1c2ccc(=O)c([As]3SCCS3)c-2oc2c([As]3SCCS3)c(O)ccc12` [FlAsH], the “FlAsH emission, TC-hTS cell lysate versus hTS cell lysate” value in test [1] (after fourth addition, total FlAsH 0.6 μM) stood at 2.5 times. Further, the “duration of FlAsH emission increase after addition of the probe” value in test [1] (printed for the hTS-expressing cells) is given as “approximately forty”. Moreover, the green fluorescence enhancement result in test [2] is reported as “green fluorescence enhancement only in TC-hTS-transfected cells”. For the same compound, in test [3], the Kd is at least 4 pM.
Broadly, the Km is the substrate concentration at which the rate is half of its maximum. As to `Nc1nc2c(c(=O)[nH]1)N1CN(c3ccc(C(=O)N[C@@H](CCC(=O)O)C(=O)O)cc3)CC1CN2` (some centres unmarked) [mTHF, 5,10-methylenetetrahydrofolate], the Michaelis constant (Km) in test [4] turned out to be 5.87 µM.
